Legend:
Assay type in all cases: in vivo
rice (Oryza sativa) = assay: Test B flooded paddy test plant response
How it was run: (§1)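 2-leaf plants; pots flooded 3 cm above soil; compound added to paddy water; depth maintained. Greenhouse 13–15 d. Visual rating vs controls, 0 (no effect) to 100 (complete control); dash = no result.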

[1] = test system: barnyardgrass (Echinochloa crus-galli); assay: Test B flooded paddy test plant response
How it was run: as §1

[2] = test system: ducksalad (Heteranthera limosa); assay: Test B flooded paddy test plant response
How it was run: as §1

[3] = test system: umbrella sedge (Cyperus difformis); assay: Test B flooded paddy test plant response
How it was run: as §1

[4] = test system: eastern black (E.B.) nightshade (Solanum ptycanthum); assay: Test B pre-/postemergence plant response; conditions: Preemergence; for Nightshade, E. B. plant response rating: scale 0 to 100
How it was run: (§2)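 Preemergence and postemergence (plants 2-18 cm, 1- to 4-leaf stage) applications used test chemicals in a non-phytotoxic solvent with surfactant. Plants were held in a greenhouse 13 to 15 days, then rated visually against controls on a 0-100 scale (0 no effect, 100 complete control).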

[5] = test system: giant foxtail (Setaria faberii); assay: Test B pre-/postemergence plant response
How it was run: as §2

[6] = test system: morningglory (Ipomoea coccinea); assay: Test B pre-/postemergence plant response
How it was run: as §2

soybean (Glycine max) = assay: Test B pre-/postemergence plant response
How it was run: as §2

[7] = test system: downy bromegrass (Bromus tectorum); assay: Test B pre-/postemergence plant response; conditions: for Bromegrass, Downy plant response rating: 8 g ai/ha
How it was run: as §2

[8] = test system: Russian thistle (Salsola iberica); assay: Test B pre-/postemergence plant response; conditions: Preemergence; for Russian Thistle plant response rating: scale 0 to 100
How it was run: as §2

[9] = test system: goosegrass (Eleusine indica); assay: Test B pre-/postemergence plant response
How it was run: as §2

[10] = test system: common (oilseed) sunflower (Helianthus annuus); assay: Test B pre-/postemergence plant response; conditions: Preemergence; for Sunflower plant response rating: scale 0 to 100
How it was run: as §2

[11] = test system: wheat (Triticum aestivum); assay: Test B pre-/postemergence plant response
How it was run: as §2

[12] = test system: surinam grass (Brachiaria decumbens); assay: Test B pre-/postemergence plant response
How it was run: as §2

[13] = Flood (flooded paddy test), 62 g ai/ha, scale 0 to 100, 0 no effect, 100 complete control
[14] = Flood (flooded paddy test), 125 g ai/ha, scale 0 to 100, 0 no effect, 100 complete control
[15] = Flood (flooded paddy test), 250 g ai/ha, scale 0 to 100, 0 no effect, 100 complete control
[16] = Flood, 31 g ai/ha, scale 0 to 100
[17] = 31 g ai/ha, scale 0 to 100 (0 no effect, 100 complete control)
[18] = 62 g ai/ha, 0 to 100 scale, 0 no effect, 100 complete control
[19] = 8 g ai/ha, postemergence, 0-100 scale
[20] = Postemergence, 16 g ai/ha, scale 0 to 100
[21] = Postemergence, 31 g ai/ha, scale 0 to 100
[22] = Postemergence, 62 g ai/ha, scale 0 to 100, 0 no effect, 100 complete control
[23] = Preemergence, 31 g ai/ha, scale 0 to 100 (0 no effect, 100 complete control)
[24] = Preemergence, 62 g ai/ha, 0 to 100 scale, 0 no effect, 100 complete control
[25] = Preemergence, 8 g ai/ha, scale 0 to 100
[26] = Preemergence, 16 g ai/ha, scale 0 to 100

With `CCCC(=O)Oc1cnn(C)c(=O)c1-n1nc(-c2ccc(Cl)cc2)cc1C` [Compound 56] the “Plant response rating, Rice” value (rice (Oryza sativa); [13]) was 0, the “Plant response rating, Rice” value (rice (Oryza sativa); [14]) was 0 and the “Plant response rating, Rice” value (rice (Oryza sativa); [15]) was 10. For the same compound, the “Plant response rating, Rice” value (rice (Oryza sativa); [16]) was 0, the “Plant response rating, Barnyardgrass” value [1, 13] was 0 and the “Plant response rating, Barnyardgrass” value [1, 14] was 20. The “Plant response rating, Barnyardgrass” value [1, 15] was 60, the “Plant response rating, Barnyardgrass” value [1, 16] was 0 and the “Plant response rating, Ducksalad” value [2, 13] was 0. The “Plant response rating, Ducksalad” value [2, 14] was 40, the “Plant response rating, Ducksalad” value [2, 15] was 75 and the “Plant response rating, Ducksalad” value [2, 16] was 0. For the same compound, the “Plant response rating, Sedge, Umbrella” value [3, 13] was 75, the “Plant response rating, Sedge, Umbrella” value [3, 14] was 85 and the “Plant response rating, Sedge, Umbrella” value [3, 15] was 85. The “Plant response rating, Sedge, Umbrella” value [3, 16] was 70, the “Plant response rating, Nightshade, E. B.” value [4, 17] was 0 and the “Plant response rating, Nightshade, E. B.” value [4, 18] was 20. The “Nightshade, E. B. plant response rating” value ([4]; 8 g ai/ha) was 0, the “Nightshade, E. B. plant response rating” value ([4]; 16 g ai/ha) was 0 and the “Foxtail, Giant plant response rating” value [5, 19] was 75. The “Plant response rating, Foxtail, Giant” value [5, 20] was 98, the “Plant response rating, Foxtail, Giant” value [5, 21] was 98 and the “Plant response rating, Foxtail, Giant” value [5, 22] was 100. The “Plant response rating, Foxtail, Giant” value [5, 23] was 100, the “Plant response rating, Foxtail, Giant” value [5, 24] was 100 and the “Foxtail, Giant plant response rating” value [5, 25] was 95. The “Foxtail, Giant plant response rating” value [5, 26] was 100, the “Morningglory plant response rating” value [6, 19] was 0 and the “Plant response rating, Morningglory” value [6, 20] was 0. The “Plant response rating, Morningglory” value [6, 21] was 0, the “Plant response rating, Morningglory” value [6, 22] was 0 and the “Plant response rating, Morningglory” value [6, 23] was 0. The “Plant response rating, Morningglory” value [6, 24] was 0, the “Morningglory plant response rating” value [6, 25] was 0 and the “Morningglory plant response rating” value [6, 26] was 0. The “Soybean plant response rating” value (soybean (Glycine max); [19]) was 0, the “Plant response rating, Soybean” value (soybean (Glycine max); [20]) was 0 and the “Plant response rating, Soybean” value (soybean (Glycine max); [21]) was 0. For the same compound, the “Plant response rating, Soybean” value (soybean (Glycine max); [22]) was 0, the “Plant response rating, Soybean” value (soybean (Glycine max); [24]) was 0 and the “Soybean plant response rating” value (soybean (Glycine max); [25]) was 0. The “Soybean plant response rating” value (soybean (Glycine max); [26]) was 0, the “Bromegrass, Downy plant response rating” value ([7]; postemergence, 0-100 scale) was 0 and the “Plant response rating, Bromegrass, Downy” value [7, 20] was 0. For the same compound, the “Plant response rating, Bromegrass, Downy” value [7, 21] was 0, the “Plant response rating, Bromegrass, Downy” value [7, 22] was 0 and the “Plant response rating, Bromegrass, Downy” value ([7]; Preemergence, 16 g ai/ha, scale 0 to 100 (0 no effect, 100 complete control)) was 20. For the same compound, the “Plant response rating, Bromegrass, Downy” value [7, 23] was 45, the “Plant response rating, Bromegrass, Downy” value [7, 24] was 75 and the “Bromegrass, Downy plant response rating” value ([7]; Preemergence, scale 0 to 100) was 0. For the same compound, the “Plant response rating, Russian Thistle” value [8, 17] was 0, the “Plant response rating, Russian Thistle” value [8, 18] was 0 and the “Russian Thistle plant response rating” value ([8]; 8 g ai/ha) was 0. For the same compound, the “Russian Thistle plant response rating” value ([8]; 16 g ai/ha) was 0, the “Goosegrass plant response rating” value [9, 19] was 60 and the “Plant response rating, Goosegrass” value [9, 20] was 65. For the same compound, the “Plant response rating, Goosegrass” value [9, 21] was 75, the “Plant response rating, Goosegrass” value [9, 22] was 98 and the “Plant response rating, Goosegrass” value [9, 23] was 98. The “Plant response rating, Goosegrass” value [9, 24] was 100, the “Goosegrass plant response rating” value [9, 25] was 75 and the “Goosegrass plant response rating” value [9, 26] was 80. The “Plant response rating, Sunflower” value [10, 17] was 0, the “Plant response rating, Sunflower” value [10, 18] was 0 and the “Sunflower plant response rating” value ([10]; 8 g ai/ha) was 0. The “Sunflower plant response rating” value ([10]; 16 g ai/ha) was 0, the “Wheat plant response rating” value [11, 19] was 5 and the “Plant response rating, Wheat” value [11, 20] was 65. For the same compound, the “Plant response rating, Wheat” value [11, 21] was 80, the “Plant response rating, Wheat” value [11, 22] was 90 and the “Plant response rating, Wheat” value [11, 23] was 35. For the same compound, the “Plant response rating, Wheat” value [11, 24] was 80, the “Wheat plant response rating” value [11, 26] was 10 and the “Surinam Grass plant response rating” value [12, 19] was 70. For the same compound, the “Plant response rating, Surinam Grass” value [12, 20] was 75, the “Plant response rating, Surinam Grass” value [12, 21] was 98 and the “Plant response rating, Surinam Grass” value [12, 22] was 100. The “Plant response rating, Surinam Grass” value [12, 23] was 100, the “Plant response rating, Surinam Grass” value [12, 24] was 100 and the “Surinam Grass plant response rating” value [12, 25] was 75. For the same compound, the “Surinam Grass plant response rating” value [12, 26] was 90.

Source: US20100267561A1, “HERBICIDAL PYRIDAZINONE DERIVATIVES” (priority 2007, published 2010)
